Columns and labels:
[1] = biological target: MYLK4 (Homo sapiens (Human), UniProt Q86YV6); experiment: KINOMEscan; format: binding; details: 1 uM
[2] = biological target: EIF2AK1 (Homo sapiens (Human), UniProt Q9BQI3); experiment: KINOMEscan; format: binding; details: 1 uM
[3] = biological target: KIT (V559D, V654A) (Homo sapiens (Human), UniProt P10721, V559D/V654A); experiment: KINOMEscan; format: binding; details: 1 uM
[4] = biological target: EGFR (E746-A750del) (Homo sapiens (Human), UniProt P00533, DEL746-750); experiment: KINOMEscan; format: binding; details: 1 uM
[5] = biological target: MARK2 (Homo sapiens (Human), UniProt Q7KZI7); experiment: KINOMEscan; format: binding; details: 1 uM
[6] = biological target: FLT3 (R834Q) (Homo sapiens (Human), UniProt P36888, R834Q); experiment: KINOMEscan; format: binding; details: 1 uM
[7] = biological target: RET (V804M) (Homo sapiens (Human), UniProt P07949, V804M); experiment: KINOMEscan; format: binding; details: 1 uM
[8] = biological target: SLK (Homo sapiens (Human), UniProt Q9H2G2); experiment: KINOMEscan; format: binding; details: 1 uM
[9] = biological target: BRSK1 (Homo sapiens (Human), UniProt Q8TDC3); experiment: KINOMEscan; format: binding; details: 1 uM
[10] = biological target: CSNK1E (Homo sapiens (Human), UniProt P49674); experiment: KINOMEscan; format: binding; details: 1 uM
[11] = biological target: LZK (Homo sapiens (Human), UniProt O43283); experiment: KINOMEscan; format: binding; details: 1 uM
[12] = biological target: MINK (Homo sapiens (Human), UniProt Q8N4C8); experiment: KINOMEscan; format: binding; details: 1 uM
[13] = biological target: EPHA8 (Homo sapiens (Human), UniProt P29322); experiment: KINOMEscan; format: binding; details: 1 uM
[14] = biological target: ZAK (Homo sapiens (Human), UniProt Q9NYL2); experiment: KINOMEscan; format: binding; details: 1 uM
[15] = biological target: BMPR2 (Homo sapiens (Human), UniProt Q13873); experiment: KINOMEscan; format: binding; details: 1 uM
[16] = biological target: CDK7 (Homo sapiens (Human), UniProt P50613); experiment: KINOMEscan; format: binding; details: 1 uM
[17] = biological target: KIT (L576P) (Homo sapiens (Human), UniProt P10721, L576P); experiment: KINOMEscan; format: binding; details: 1 uM
[18] = biological target: MKNK1 (Homo sapiens (Human), UniProt Q9BUB5); experiment: KINOMEscan; format: binding; details: 1 uM
[19] = biological target: EPHB6 (Homo sapiens (Human), UniProt O15197); experiment: KINOMEscan; format: binding; details: 1 uM
[20] = biological target: PIK3CG (Homo sapiens (Human), UniProt P48736); experiment: KINOMEscan; format: binding; details: 1 uM
[21] = biological target: PAK4 (Homo sapiens (Human), UniProt O96013); experiment: KINOMEscan; format: binding; details: 1 uM
[22] = biological target: BTK (Homo sapiens (Human), UniProt Q06187); experiment: KINOMEscan; format: binding; details: 1 uM
[23] = biological target: TNK1 (Homo sapiens (Human), UniProt Q13470); experiment: KINOMEscan; format: binding; details: 1 uM
[24] = biological target: CSNK2A1 (Homo sapiens (Human), UniProt P68400); experiment: KINOMEscan; format: binding; details: 1 uM
[25] = biological target: CAMK2A (Homo sapiens (Human), UniProt Q9UQM7); experiment: KINOMEscan; format: binding; details: 1 uM
[26] = biological target: MAPKAPK2 (Homo sapiens (Human), UniProt P49137); experiment: KINOMEscan; format: binding; details: 1 uM
[27] = biological target: RET (M918T) (Homo sapiens (Human), UniProt P07949, M918T); experiment: KINOMEscan; format: binding; details: 1 uM
[28] = biological target: CAMK2G (Homo sapiens (Human), UniProt Q13555); experiment: KINOMEscan; format: binding; details: 1 uM
[29] = biological target: JAK3 (JH1domain-catalytic) (Homo sapiens (Human), UniProt P52333); experiment: KINOMEscan; format: binding; details: 1 uM
[30] = biological target: JNK2 (Homo sapiens (Human), UniProt P45984); experiment: KINOMEscan; format: binding; details: 1 uM
[31] = biological target: TAOK1 (Homo sapiens (Human), UniProt Q7L7X3); experiment: KINOMEscan; format: binding; details: 1 uM
[32] = biological target: NIK (Homo sapiens (Human), UniProt Q99558); experiment: KINOMEscan; format: binding; details: 1 uM
[33] = biological target: ABL1 (T315I)-nonphosphorylated (Homo sapiens (Human), UniProt P00519, T315I); experiment: KINOMEscan; format: binding; details: 1 uM
[34] = biological target: TNIK (Homo sapiens (Human), UniProt Q9UKE5); experiment: KINOMEscan; format: binding; details: 1 uM
[35] = biological target: SRPK2 (Homo sapiens (Human), UniProt P78362); experiment: KINOMEscan; format: binding; details: 1 uM
[36] = biological target: PKN2 (Homo sapiens (Human), UniProt Q16513); experiment: KINOMEscan; format: binding; details: 1 uM
[37] = biological target: EPHA2 (Homo sapiens (Human), UniProt P29317); experiment: KINOMEscan; format: binding; details: 1 uM
[38] = biological target: CSNK1A1 (Homo sapiens (Human), UniProt P48729); experiment: KINOMEscan; format: binding; details: 1 uM
[39] = biological target: SIK2 (Homo sapiens (Human), UniProt Q9H0K1); experiment: Percent activity against SIK2 at 1 μM; format: biochemical
[40] = biological target: EGFR (L861Q) (Homo sapiens (Human), UniProt P00533, L861Q); experiment: KINOMEscan; format: binding; details: 1 uM

Sequence of SIK2 (Q9H0K1 whole entry): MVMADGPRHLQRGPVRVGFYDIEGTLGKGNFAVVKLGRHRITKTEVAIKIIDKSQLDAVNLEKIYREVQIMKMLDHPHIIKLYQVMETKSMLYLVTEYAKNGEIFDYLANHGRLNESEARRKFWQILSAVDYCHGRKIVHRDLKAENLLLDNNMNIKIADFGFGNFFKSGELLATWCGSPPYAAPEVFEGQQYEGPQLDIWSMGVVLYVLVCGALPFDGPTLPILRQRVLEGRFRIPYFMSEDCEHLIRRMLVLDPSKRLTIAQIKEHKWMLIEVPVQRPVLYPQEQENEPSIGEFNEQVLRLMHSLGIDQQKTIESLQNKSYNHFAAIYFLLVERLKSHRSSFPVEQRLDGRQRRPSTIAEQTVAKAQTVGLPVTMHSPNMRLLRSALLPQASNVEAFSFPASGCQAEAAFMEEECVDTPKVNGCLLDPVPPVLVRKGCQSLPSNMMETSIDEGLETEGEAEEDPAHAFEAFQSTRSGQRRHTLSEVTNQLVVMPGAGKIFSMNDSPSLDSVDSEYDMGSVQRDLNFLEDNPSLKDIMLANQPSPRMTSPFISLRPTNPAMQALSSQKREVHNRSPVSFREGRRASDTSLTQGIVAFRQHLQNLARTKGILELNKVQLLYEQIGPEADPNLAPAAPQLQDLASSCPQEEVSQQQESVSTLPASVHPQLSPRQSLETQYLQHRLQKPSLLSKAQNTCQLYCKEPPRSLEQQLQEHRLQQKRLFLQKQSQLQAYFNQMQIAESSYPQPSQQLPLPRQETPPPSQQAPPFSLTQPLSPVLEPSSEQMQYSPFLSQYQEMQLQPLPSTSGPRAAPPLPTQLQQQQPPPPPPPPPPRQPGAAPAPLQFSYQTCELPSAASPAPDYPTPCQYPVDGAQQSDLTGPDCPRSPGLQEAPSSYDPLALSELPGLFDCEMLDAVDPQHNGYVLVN
Sequence of BTK (Q06187 whole entry): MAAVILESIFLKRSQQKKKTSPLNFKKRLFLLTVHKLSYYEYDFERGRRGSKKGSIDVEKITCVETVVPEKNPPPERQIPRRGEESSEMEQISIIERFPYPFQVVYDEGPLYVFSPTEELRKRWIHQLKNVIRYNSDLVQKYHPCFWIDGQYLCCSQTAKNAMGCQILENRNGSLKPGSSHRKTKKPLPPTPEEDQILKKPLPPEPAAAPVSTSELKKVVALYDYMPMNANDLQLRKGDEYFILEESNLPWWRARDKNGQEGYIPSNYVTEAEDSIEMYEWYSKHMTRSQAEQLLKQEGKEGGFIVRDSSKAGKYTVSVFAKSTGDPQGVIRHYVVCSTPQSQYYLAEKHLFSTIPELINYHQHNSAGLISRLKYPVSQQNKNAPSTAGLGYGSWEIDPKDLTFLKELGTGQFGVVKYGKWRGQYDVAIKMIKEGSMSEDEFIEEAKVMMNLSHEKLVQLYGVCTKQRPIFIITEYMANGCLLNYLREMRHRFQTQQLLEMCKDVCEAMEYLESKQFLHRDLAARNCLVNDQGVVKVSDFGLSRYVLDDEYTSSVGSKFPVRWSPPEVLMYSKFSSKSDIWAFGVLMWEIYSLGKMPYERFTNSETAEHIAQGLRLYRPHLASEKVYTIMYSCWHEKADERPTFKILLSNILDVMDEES
Sequence of CSNK2A1 (P68400 whole entry): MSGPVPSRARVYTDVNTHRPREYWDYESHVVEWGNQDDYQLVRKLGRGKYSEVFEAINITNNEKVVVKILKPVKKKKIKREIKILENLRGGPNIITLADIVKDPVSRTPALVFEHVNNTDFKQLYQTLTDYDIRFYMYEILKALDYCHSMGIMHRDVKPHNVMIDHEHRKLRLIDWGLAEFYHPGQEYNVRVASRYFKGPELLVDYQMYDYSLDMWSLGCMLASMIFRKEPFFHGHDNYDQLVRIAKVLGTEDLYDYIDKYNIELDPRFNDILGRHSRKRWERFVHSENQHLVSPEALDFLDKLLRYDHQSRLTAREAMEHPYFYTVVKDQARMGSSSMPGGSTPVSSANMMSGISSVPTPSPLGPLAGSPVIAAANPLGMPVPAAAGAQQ
Sequence of EPHA2 (P29317 24-976): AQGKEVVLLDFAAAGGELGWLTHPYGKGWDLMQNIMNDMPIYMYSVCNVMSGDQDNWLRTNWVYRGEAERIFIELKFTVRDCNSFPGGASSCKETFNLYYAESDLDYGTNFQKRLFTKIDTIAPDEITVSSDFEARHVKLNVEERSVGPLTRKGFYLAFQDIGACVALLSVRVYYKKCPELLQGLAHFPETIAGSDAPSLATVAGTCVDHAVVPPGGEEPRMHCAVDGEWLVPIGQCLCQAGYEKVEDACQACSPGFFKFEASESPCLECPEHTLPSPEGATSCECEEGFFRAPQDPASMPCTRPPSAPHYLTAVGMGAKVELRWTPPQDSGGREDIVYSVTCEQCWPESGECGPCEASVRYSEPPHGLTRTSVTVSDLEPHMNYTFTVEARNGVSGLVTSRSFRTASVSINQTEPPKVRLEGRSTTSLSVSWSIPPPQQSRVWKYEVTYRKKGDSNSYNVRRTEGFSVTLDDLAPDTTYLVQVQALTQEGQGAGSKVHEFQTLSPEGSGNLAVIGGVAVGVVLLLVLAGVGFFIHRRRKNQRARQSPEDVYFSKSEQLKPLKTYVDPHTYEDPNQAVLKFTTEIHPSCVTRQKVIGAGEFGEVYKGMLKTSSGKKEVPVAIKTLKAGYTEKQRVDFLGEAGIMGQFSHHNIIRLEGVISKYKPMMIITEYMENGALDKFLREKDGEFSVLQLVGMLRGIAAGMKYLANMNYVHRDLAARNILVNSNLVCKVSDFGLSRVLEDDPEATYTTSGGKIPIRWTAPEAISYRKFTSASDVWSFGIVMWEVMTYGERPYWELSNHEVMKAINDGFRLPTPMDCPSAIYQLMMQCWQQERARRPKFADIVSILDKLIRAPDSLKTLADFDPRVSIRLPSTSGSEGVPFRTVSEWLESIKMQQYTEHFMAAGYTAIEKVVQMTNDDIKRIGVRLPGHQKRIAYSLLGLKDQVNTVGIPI
Sequence of TNIK (Q9UKE5 whole entry): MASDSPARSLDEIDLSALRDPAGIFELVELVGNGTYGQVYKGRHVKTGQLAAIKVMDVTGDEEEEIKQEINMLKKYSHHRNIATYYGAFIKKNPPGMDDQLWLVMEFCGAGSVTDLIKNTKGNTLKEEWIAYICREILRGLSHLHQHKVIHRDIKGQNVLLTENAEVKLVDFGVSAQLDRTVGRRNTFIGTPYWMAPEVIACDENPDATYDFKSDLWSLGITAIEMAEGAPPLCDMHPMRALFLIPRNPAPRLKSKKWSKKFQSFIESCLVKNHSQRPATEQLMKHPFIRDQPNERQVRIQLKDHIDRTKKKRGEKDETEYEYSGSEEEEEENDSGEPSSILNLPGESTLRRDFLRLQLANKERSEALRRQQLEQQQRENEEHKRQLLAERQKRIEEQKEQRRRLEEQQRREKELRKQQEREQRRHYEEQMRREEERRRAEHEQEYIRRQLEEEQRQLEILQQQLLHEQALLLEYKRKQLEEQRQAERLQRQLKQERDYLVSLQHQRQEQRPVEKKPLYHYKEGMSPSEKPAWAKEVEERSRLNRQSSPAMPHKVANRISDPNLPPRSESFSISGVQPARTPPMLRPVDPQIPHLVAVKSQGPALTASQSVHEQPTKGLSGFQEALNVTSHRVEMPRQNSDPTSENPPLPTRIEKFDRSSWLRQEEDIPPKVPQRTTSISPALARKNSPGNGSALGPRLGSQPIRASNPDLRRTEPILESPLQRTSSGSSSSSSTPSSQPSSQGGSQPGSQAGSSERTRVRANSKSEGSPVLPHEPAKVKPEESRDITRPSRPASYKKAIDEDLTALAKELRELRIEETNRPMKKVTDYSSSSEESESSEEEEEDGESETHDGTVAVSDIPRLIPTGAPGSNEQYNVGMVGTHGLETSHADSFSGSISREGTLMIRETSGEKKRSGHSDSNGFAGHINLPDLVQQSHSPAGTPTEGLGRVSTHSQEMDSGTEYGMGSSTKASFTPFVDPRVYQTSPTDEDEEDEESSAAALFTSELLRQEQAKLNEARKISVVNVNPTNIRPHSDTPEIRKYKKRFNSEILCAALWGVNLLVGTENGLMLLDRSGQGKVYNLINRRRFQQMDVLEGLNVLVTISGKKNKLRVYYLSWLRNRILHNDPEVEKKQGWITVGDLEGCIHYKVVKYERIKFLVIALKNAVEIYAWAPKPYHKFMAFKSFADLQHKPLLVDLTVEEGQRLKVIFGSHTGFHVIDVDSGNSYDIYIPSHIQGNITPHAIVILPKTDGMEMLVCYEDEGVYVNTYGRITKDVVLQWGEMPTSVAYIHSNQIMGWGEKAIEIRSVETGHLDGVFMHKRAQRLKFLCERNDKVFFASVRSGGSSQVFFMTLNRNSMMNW
Sequence of CDK7 (P50613 whole entry): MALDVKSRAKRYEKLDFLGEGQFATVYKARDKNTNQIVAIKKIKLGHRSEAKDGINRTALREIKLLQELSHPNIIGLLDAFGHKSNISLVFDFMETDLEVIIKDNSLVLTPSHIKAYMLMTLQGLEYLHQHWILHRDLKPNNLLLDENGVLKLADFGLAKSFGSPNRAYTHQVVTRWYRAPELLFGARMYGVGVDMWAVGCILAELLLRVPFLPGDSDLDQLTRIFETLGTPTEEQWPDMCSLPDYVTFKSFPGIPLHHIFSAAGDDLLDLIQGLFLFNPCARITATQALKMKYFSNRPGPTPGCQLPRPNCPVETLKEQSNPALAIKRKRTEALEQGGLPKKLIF
Sequence of JAK3 (JH1domain-catalytic) (P52333 822-1111): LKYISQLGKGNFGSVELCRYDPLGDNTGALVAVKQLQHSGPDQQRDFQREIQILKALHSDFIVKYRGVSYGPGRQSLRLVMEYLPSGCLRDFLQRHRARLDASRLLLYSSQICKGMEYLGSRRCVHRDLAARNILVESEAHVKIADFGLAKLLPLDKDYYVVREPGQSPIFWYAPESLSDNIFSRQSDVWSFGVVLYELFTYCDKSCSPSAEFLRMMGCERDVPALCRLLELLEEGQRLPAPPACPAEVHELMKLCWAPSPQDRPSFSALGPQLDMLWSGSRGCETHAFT

In the case of `COc1ccc(N2C(=O)N(c3c(C)cccc3C)Cc3cnc(Nc4ccc(N5CCN(C)CC5)cc4)nc32)c(OC)c1` [HG-11-136-01], the “KINOMEscan MYLK4” value [1] was 60, the “KINOMEscan EIF2AK1” value [2] was 93 and the “KINOMEscan KIT (V559D, V654A)” value [3] was 2.2. For the same molecule, the “KINOMEscan EGFR (E746-A750del)” value [4] was 1.8, the “KINOMEscan MARK2” value [5] was 3.7 and the “KINOMEscan FLT3 (R834Q)” value [6] was 48. For the same molecule, the “KINOMEscan RET (V804M)” value [7] was 7.6, the “KINOMEscan SLK” value [8] was 0.1 and the “KINOMEscan BRSK1” value [9] was 100. For the same molecule, the “KINOMEscan CSNK1E” value [10] was 59, the “KINOMEscan LZK” value [11] was 4 and the “KINOMEscan MINK” value [12] was 2.8. For the same molecule, the “KINOMEscan EPHA8” value [13] was 0.9, the “KINOMEscan ZAK” value [14] was 1.2 and the “KINOMEscan BMPR2” value [15] was 77. For the same molecule, the “KINOMEscan CDK7” value [16] was 60, the “KINOMEscan KIT (L576P)” value [17] was 0 and the “KINOMEscan MKNK1” value [18] was 85. For the same molecule, the “KINOMEscan EPHB6” value [19] was 0.7, the “KINOMEscan PIK3CG” value [20] was 77 and the “KINOMEscan PAK4” value [21] was 34. For the same molecule, the “KINOMEscan BTK” value [22] was 0.05, the “KINOMEscan TNK1” value [23] was 0.9 and the “KINOMEscan CSNK2A1” value [24] was 1.9. For the same molecule, the “KINOMEscan CAMK2A” value [25] was 93, the “KINOMEscan MAPKAPK2” value [26] was 100 and the “KINOMEscan RET (M918T)” value [27] was 0.05. The “KINOMEscan CAMK2G” value [28] was 100, the “KINOMEscan JAK3 (JH1domain-catalytic)” value [29] was 0 and the “KINOMEscan JNK2” value [30] was 20. The “KINOMEscan TAOK1” value [31] was 1, the “KINOMEscan NIK” value [32] was 36 and the “KINOMEscan ABL1 (T315I)-nonphosphorylated” value [33] was 0. For the same molecule, the “KINOMEscan TNIK” value [34] was 2.8, the “KINOMEscan SRPK2” value [35] was 93 and the “KINOMEscan PKN2” value [36] was 94. The “KINOMEscan EPHA2” value [37] was 0.6, the “KINOMEscan CSNK1A1” value [38] was 100 and the “Enzyme activity at 1 μM (%) SIK2” value ([39]; 1 μM) was 2.8%. For the same molecule, the “SIK2 % ACTIVITY” value ([39]; compound at 1 μM, approximate Km for ATP) was 2.8% and the “KINOMEscan EGFR (L861Q)” value [40] was 0.

— patent publication US11725011B2, “Bicyclic urea kinase inhibitors and uses thereof” (The Broad Institute, Inc., priority 2016, dated 2023)
